These results are taken from article PMC8691714 (Cancer Research Communications, 2021).

Data set [1] addresses T1, OCT3 (Homo sapiens, UniProt O75751).
T1 construct: expressed in transfected cells; compared with empty vector control
T1 sequence (O75751 1-556): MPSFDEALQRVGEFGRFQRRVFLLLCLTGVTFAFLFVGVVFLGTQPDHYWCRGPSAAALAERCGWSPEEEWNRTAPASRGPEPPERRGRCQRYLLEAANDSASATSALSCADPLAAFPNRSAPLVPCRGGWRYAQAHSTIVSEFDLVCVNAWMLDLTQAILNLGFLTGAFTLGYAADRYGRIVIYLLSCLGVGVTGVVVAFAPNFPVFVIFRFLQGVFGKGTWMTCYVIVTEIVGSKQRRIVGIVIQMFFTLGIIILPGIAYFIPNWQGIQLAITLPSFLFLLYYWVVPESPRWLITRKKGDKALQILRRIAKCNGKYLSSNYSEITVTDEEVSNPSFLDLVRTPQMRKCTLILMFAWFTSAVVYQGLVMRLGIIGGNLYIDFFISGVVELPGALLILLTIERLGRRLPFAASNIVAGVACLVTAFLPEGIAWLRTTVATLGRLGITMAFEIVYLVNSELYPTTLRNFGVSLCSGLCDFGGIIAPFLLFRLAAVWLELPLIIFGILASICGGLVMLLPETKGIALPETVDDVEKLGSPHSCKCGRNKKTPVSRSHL
The experiment in a line: In vitro transport assay, cells overexpressing OCT3. It is filed as cell-based. The note with it: OCT3 vs empty vector; 15 minutes.

The subject of data set [2] is TMD8 cells. The experiment in a line: MTT viability assay, TMD8 cells, 72 hours. It is filed as cell-based, human. The note with it: Homo sapiens, TMD8, 72 h, MTT. As to the method: Cell viability was assessed after 72 hours of incubation.
(In general: Tetrazolium assays rely on reduction of a dye to a coloured formazan, in cell work by metabolically active cells.)

The conditions of data set [3]: cited from earlier work.
Data set [4] relates to Caco-2. Details: method as in earlier work. The note with it: PBPK model parameter; ref [17, 18] and Drugbank; cited from earlier work.
On the set-up of data set [5]: method as in earlier work. The note with it: PBPK model parameter, ref [17, 18] and Drugbank, cited from earlier work.

Some results are limits rather than exact numbers.

As to `C=CC(=O)N1CCC[C@@H](n2nc(-c3ccc(Oc4ccccc4)cc3)c3c(N)ncnc32)C1` [Ibrutinib], in data set [1], the “uptake of ibrutinib by transporter-overexpressing cells” value is on record as “not substantially facilitated”. For the same molecule, the IC50 came out at 1.4 nM in data set [2] (None (Fig. 2A, ketoconazole panel)); 1.4 nM in data set [2] (None (Fig. 2B, cobicistat panel)); 1.3 nM in data set [2] (with 0.1 μmol/L cobi); 1.1 nM in data set [2] (with 0.1 μmol/L keto); 1.1 nM in data set [2] (with 1 μmol/L cobi); 1 nM in data set [2] (with 1 μmol/L keto). Besides, the IC50 in data set [2] (with 10 μmol/L cobi) is 0.82 nM; in data set [2] (with 10 μmol/L keto), 0.88 nM. Besides, in data set [3] (itraconazole-ibrutinib interaction, ref [8]), the “experimentally observed increase in ibrutinib exposure” value is on record as 10 fold. For the same molecule, the “increase in ibrutinib exposure predicted from a pharmacokinetic model” value in data set [3] (itraconazole-ibrutinib interaction, ref [23]) is listed as 21 fold. The oral bioavailability in data set [3] (patients, ref [4, 5]) is listed as less than 3%. Besides, the Caco-2 in data set [4] was 32.6 ×10⁻⁶ cm/s.

For the molecule `Nc1ncnc2c1c(-c1ccc(Oc3ccccc3)cc1)nn2[C@@H]1CCCN(C(=O)C(O)CO)C1` (stereo partly drawn) [PCI-45227], in data set [5] (oral clearance), the Clpo result is “Clpo (L/h) : 433”. Besides, the Vss in data set [5] (steady-state volume of distribution) was 9.0 L/kg.

By IC50 is commonly meant the midpoint of a concentration-inhibition curve. High values mean weaker potency in that assay, low ones greater potency in that assay. The Vss is a proportionality between amount in the body and measured concentration, not a real space.
